# Reference: patent publication US20040248775A1, “Methods for screening inhibitors of apoptosis” (Wyeth, priority 2003, published 2004)
# Biological target: T1, His6-NALP1 NBS mutant (G339E, K340A) (Homo sapiens, UniProt Q9C000, G339E/K340A)
# T1 construct: made in house; host or cells: COS-7 cells, transient transfection, Ni-NTA purification
# T1 sequence (Q9C000 1-1473 G339E/K340A): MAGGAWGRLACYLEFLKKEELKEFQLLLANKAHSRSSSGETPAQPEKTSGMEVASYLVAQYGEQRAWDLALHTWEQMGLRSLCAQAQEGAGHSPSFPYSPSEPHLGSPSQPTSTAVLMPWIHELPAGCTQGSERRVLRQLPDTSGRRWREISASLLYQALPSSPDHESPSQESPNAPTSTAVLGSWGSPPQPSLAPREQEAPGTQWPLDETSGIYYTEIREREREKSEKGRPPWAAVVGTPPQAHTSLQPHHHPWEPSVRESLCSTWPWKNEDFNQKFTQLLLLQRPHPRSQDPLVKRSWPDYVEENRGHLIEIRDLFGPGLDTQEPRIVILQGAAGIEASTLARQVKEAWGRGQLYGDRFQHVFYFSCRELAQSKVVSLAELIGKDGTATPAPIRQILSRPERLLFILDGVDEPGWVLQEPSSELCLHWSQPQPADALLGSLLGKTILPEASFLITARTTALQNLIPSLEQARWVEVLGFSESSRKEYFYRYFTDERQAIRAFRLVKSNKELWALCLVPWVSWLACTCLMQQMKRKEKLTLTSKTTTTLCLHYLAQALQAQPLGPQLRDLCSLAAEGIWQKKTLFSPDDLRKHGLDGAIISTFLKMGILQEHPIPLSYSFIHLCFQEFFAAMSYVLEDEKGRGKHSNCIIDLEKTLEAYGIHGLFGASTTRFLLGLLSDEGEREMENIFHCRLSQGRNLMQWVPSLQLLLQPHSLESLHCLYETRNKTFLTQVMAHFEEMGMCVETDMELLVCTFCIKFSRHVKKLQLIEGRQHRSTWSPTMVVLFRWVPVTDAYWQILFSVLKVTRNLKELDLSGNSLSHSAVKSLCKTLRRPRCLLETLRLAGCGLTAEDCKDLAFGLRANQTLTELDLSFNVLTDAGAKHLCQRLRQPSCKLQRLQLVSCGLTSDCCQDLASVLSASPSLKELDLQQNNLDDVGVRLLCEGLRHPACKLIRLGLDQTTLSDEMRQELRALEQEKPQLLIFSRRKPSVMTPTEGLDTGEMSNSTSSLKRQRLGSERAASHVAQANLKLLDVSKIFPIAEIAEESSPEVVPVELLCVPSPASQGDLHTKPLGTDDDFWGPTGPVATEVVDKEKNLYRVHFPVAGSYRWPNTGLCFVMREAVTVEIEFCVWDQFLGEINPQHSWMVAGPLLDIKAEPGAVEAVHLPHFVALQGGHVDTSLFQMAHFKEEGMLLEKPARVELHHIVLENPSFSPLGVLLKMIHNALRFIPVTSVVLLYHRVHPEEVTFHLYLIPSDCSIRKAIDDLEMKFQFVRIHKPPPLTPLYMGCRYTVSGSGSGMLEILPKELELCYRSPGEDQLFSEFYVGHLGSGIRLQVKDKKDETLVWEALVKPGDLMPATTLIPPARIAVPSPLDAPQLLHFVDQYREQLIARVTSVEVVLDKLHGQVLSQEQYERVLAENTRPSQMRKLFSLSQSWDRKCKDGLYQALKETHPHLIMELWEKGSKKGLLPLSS
# Assay: Ni flashplate dATPα35S binding assay, NBS mutant His6-NALP1
# Conditions: 8 nM dATPα35S displaced by non-radiolabeled dATP
# Procedure: Production of purified NALP-Flashplate binding assay. NALP1 protein for in vitro binding assays was purified from transiently transfected cells. COS-7 cells were plated in DMEM, 10% fetal calf serum with amino acid supplements and antibiotics and allowed to grow to approximately 50% confluency. Large-scale preparations were performed in Cell Factories (NUNC) with approximately 600 μg plasmid DNA. Polyfect transfection reagent (Qiagen) was used as described by the manufacturer. After 24 hours, cells were collected by trypsinization, washed with fresh medium and then with PBS. Cells were lysed by resuspension in 10× cell volume of lysis buffer (140 mM NaCl, 0.1% Triton-X100, 0.1 mM DTT, 20 mM HEPES at pH 7.4 and protease inhibitor cocktail (Roche Diagnostics BmbH)). Lysates were centrifuged at approximately 7400×g for 30 minutes and supernatants were supplemented with glycerol to a final concentration of 10% and stored at −70° C. until purification. Protein concentrations were measured and samples normalized. Extracts were mixed with 1 ml Ni-NTA agarose equilibrated with the same buffer for 1 hour at 4° C. in the tube. Disposable columns were filled with the resin and flow-through collected. […] Reactions were stopped by aspirating solutions and washed once with Buffer B. Plates were counted in a Top Count scintillation counter (Packard).
structure (smiles),measurement,value
Nc1ncnc2c1ncn2[C@H]1C[C@H](O)[C@@H](COP(=O)(O)OP(=O)(O)OP(=O)(O)O)O1 [dATP],specific binding of dATP to NBS mutant NALP1,failed to achieve significant binding
